These results are taken from patent USRE46943E1, “Radioprotector compounds and methods” (PETER MACCALLUM CANCER INSTITUTE, priority 2010, dated 2018).

Assay [1] has as its system transformed human keratinocyte cell line (FEP 1811). Put plainly: Clonogenic survival cell culture assay for radioprotective activity (12 Gy 137Cs gamma irradiation). Format: cell-based. Conditions: 12 Gy; for DMF10 (dose modification factor at a concentration of 10 microM of radioprotector): 10 microM radioprotector; for DMFm (dose modification factor at maximum protection): DMF=Dp/Dc at survival level Sm; for PF (protection factor = Sm/So): survival at maximum protection vs irradiation only. An outline of the steps:
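Survival after irradiation gave protection factor PF = Sm/So (maximum-protection survival over irradiation-only survival). DMF = Dp/Dc is the ratio of doses giving survival Sm with and without radioprotector. DMF10 uses survival at 10 microM radioprotector in place of Sm.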

The subject of assay [2] is oral mucosa of mouse tongue. Put plainly: Topical radioprotection of the oral mucosa of mouse tongue (mucosal ulceration endpoint). The assay is classed as in vivo, mice of the inbred C3H/Neu strain. How it is done:
Mice of the inbred C3H/Neu strain were sourced from a breeding colony at the Medical Faculty Carl Gustav Cams, Dresden, Germany. The animals were bred and housed under specified pathogen-free conditions. Housing was under controlled conditions of humidity (30-50%) and temperature (21° C.-24° C.). An automated light programme regulated a 12/12-hour light/dark rhythm with lights on from 6 am to 6 pm. The mice were kept in size 3 Macrolon cages, maximum of 10 per cage, on sawdust bedding. Standard mouse diet (Altromin 1326, Altrogge) and filtered city tap water from standard perspex drinking bottles were provided ad libitum.
A 3 mm×3 mm field at the middle of the lower surface of the mouse tongue was irradiated with 25 kV x-rays from a Darpac 150-MC device (Forward Raytech Ltd, Swinburne, UK) operated with a tube current of 20 milliamps yielding a dose rate of 3.78 Gy per minute and a focus-skin distance of 15 cm. Anaesthetised mice (sodium pentabarbitone; 60 mg per kg) were placed in a supine position in the central cylindrical hole (diameter 25 mm) of a pre-warmed aluminium block (approximately 35° C.). The tongue was guided through a hole (diameter 3 mm) in roof of the block by use of forceps, and the upper surface of the tongue was fixed to the outer surface of the block with double-sided adhesive tape. The head was supported by a polystyrene wedge to avoid traction of the base of the tongue and consequent hypoxia. The collimator was a 1 mm thick aluminium plate with a 3×3 mm^2 window positioned centrally over the lower surface of the tongue. Groups of 10 mice, were irradiated with 5 different doses in the range of 10-20 Gy.
One hour prior to irradiation, 10 microlitres of formulation was applied to the lower surface of the tongue of anaesthetised mice using a displacement micropipette. Thirty minutes later, a second 10 microlitre aliquot of the formulation was applied and the mice irradiated thirty minutes later.
Stock solutions of the appropriate drug in propylene glycol or water were diluted with an aqueous solution of Poloxamer 407 gel (BASF Lutrol F 127) and/or a solution of hydroxypropyl cellulose (approx average MW 80,000; Aldrich cat no 435007) in propylene glycol and with water and/or propylene glycol, producing each of two formulations: • Formulation 1—gel, which contained 10 or 30 mM drug in 20% Poloxamer 407 and 1% hydroxylpropyl cellulose in 30% propylene glycol in water, and • Formulation 2—Liquid, which contained 10, 30 or 60 mM drug in propylene glycol […] of 2% hydroxypropyl cellulose. Scoring and Data Analysis
At various times after irradiation, the lower surface of the tongue of anaesthetised mice was examined daily. The quantal endpoint used was mucosal ulceration, corresponding to confluent mucositis RTOG/EORTC grade 3. The data plotted in the example figures is the percentage of a group of 10 mice in which the endpoint of mucosal ulceration was scored for at least 2 consecutive days. Radiation dose effect curves were generated with a single parameter sigmoidal relationship (logistic function
[formula] using the Prism 5.0 curve-fitting programme to generate the ED50 value, which corresponds to the interpolated radiation dose at which 50% of the mice in the group reached the mucosal ulceration endpoint.

[3] abbreviates: 10 mM drug in Formulation 1, topical to tongue.
Where [4] appears, read: 10 mM drug in Formulation 1 vs vehicle.
[5] abbreviates: 30 mM drug in Formulation 2, topical to tongue.
The mark [6] stands for this setting: 30 mM drug in Formulation 2 vs vehicle.

Structures are written as SMILES.

With `CN1CCN(c2ccc3nc(-c4ccc5nc(-c6ccccn6)[nH]c5c4)[nH]c3c2)CC1` [Example 2, 2-(5′-(5″-(4′″-Methylpiperazin-1′″-yl)benzimidazol-2″-yl)benzimidazol-2′-yl)pyridine], in assay [1], the “DMF10 (dose modification factor at a concentration of 10 microM of radioprotector)” value (from here on “DMF10”) is 1.93, the “DMFm (dose modification factor at maximum protection)” value (from here on “DMFm”) is 2.10 and the “PF (protection factor = Sm/So)” value turned out to be 18.2. For the same molecule, the “ED50 (radiation dose at which 50% of the mice reached mucosal ulceration)” value in assay [2] (setting [3]) is on record as 14.4 Gy. The molecule also registered a dose reduction factor in assay [2] (setting [4]) of 1.20.

Turning to `Cc1ccc(-c2nc3ccc(-c4nc5ccc(N6CCN(C)CC6)cc5[nH]4)cc3[nH]2)nc1` [Example 6, 5-Methyl-2-(5′-(5″-(4′″-methylpiperazin-1′″-yl)benzimidazol-2″-yl)benzimidazol-2′-yl)pyridine], in assay [1], the “DMF10” value came out at 2.43, the “DMFm” value is recorded as 2.52 and the “PF (protection factor = Sm/So)” value is 26.2. Further, in assay [2] (setting [5]), the “ED50 (radiation dose at which 50% of the mice reached mucosal ulceration)” value is given as 14.6 Gy. This molecule came in with a dose reduction factor in assay [2] (setting [6]) of 1.13.

As for `c1ccc(-c2nc3ccc(-c4nc5ccc(N6CCOCC6)cc5[nH]4)cc3[nH]2)nc1` [Example 19, 2-(5′-(5″-Morpholinobenzimidazol-2″-yl)benzimidazol-2′-yl)pyridine], the “DMF10” value in assay [1] was found to be 1.66. Also, the “DMFm” value in assay [1] is on record as 2.26. Besides, in assay [1], the “PF (protection factor = Sm/So)” value is recorded as 69.6. Further, the “ED50 (radiation dose at which 50% of the mice reached mucosal ulceration)” value is reported as 14.3 Gy in assay [2] (setting [3]) and 15.2 Gy in assay [2] (setting [5]). Moreover, the results for the dose reduction factor in assay [2] (setting [4]) and in assay [2] (setting [6]) were 1.19 and 1.18, respectively.

For the molecule `OC1CCN(c2ccc3nc(-c4ccc5nc(-c6cc7ccccc7cn6)[nH]c5c4)[nH]c3c2)CC1` [Example 23, 3-(5′-(5″-(4′″-Hydroxypiperidin-1′″-yl)benzimidazol-2″-yl)benzimidazol-2′-yl)isoquinoline], in assay [1], the “DMF10” value is listed as 2.13, the “DMFm” value turned out to be 2.26 and the “PF (protection factor = Sm/So)” value is 36.5. In assay [2] (60 mM drug in Formulation 3, topical to tongue), the “ED50 (radiation dose at which 50% of the mice reached mucosal ulceration)” value is given as 14.6 Gy. This molecule also returned a dose reduction factor in assay [2] (60 mM drug in Formulation 3 vs blank formulation) of 1.13.
